Laboratory results taken from patent US20240148821A1, “PHARMACEUTICAL USE OF CYCLIC PEPTIDE COMPOUND” (CHUGAI SEIYAKU KABUSHIKI KAISHA, priority 2021, published 2024).
Numbered stars: 1 amine (or outer) side, 2 acyl side, 3 side chain; on linkers, the order of the positions; unused ones are H or OH. Bridge positions count the residues as written; N and C are the ends. Square brackets hold non-standard residues; d marks the D form. Peptide text beside a SMILES is read from it. * marks the point of attachment. hPhe(3,5-F2-4-CF3) = N[C@@H](CCc1cc(F)c(C(F)(F)F)c(F)c1)C(=O)O; hPhe(3-Cl-4-CF3) = N[C@@H](CCc1ccc(C(F)(F)F)c(Cl)c1)C(=O)O; NEtPhe(4-CF3) = CCN[C@@H](Cc1ccc(C(F)(F)F)cc1)C(=O)O; 3Oxa8azabicyclo(3.2.1)octane = C1CC2COCC1N2*; NMedβ3hAla = C[C@H](CC(=O)[*:2])N(C)[*:1]; NMeGly(cPent) = CN[C@H](C(=O)O)C1CCCC1; X26 = CC(C)=CC[C@H](N[*:1])C(=O)[*:2]; NMeCha = CN[C@@H](CC1CCCCC1)C(=O)O; Hyp = O=C(O)[C@@H]1C[C@@H](O)CN1; NMeChg = CN[C@H](C(=O)O)C1CCCCC1; NMeI = CC[C@H](C)[C@H](NC)C(=O)O; NMeD = CN[C@@H](CC(=O)O)C(=O)O; AllylGly = C=CC[C@H](N)C(=O)O; CH2CONHtBu = CC(C)(C)NC(=O)C*; NMeL = CN[C@@H](CC(C)C)C(=O)O; NMeNle = CCCC[C@H](NC)C(=O)O; NMeV = CN[C@H](C(=O)O)C(C)C; NMeS = CN[C@@H](CO)C(=O)O; Pip = O=C(O)[C@@H]1CCCCN1; NMeA = CN[C@@H](C)C(=O)O; NMeAib = CNC(C)(C)C(=O)O; Nle = CCCC[C@H](N)C(=O)O; Piperidide = C1CCN(*)CC1; Ac5c = NC1(C(=O)O)CCCC1; Aze = O=C(O)[C@@H]1CCN1; Ac4c = NC1(C(=O)O)CCC1; Sar = CNCC(=O)O

How the values were obtained:
[1] = target: protein-protein interaction between Kras and SOS1 (biotin-tagged human Kras loaded with GDP, His-tagged human SOS1) (Homo sapiens (Human), UniProt P01116, G12D); assay: Protein-protein interaction inhibition between Kras and SOS1 (KrasG12D-SOS PPI) using AlphaScreen; assay type: biochemical; conditions: AlphaScreen; biotin-tagged human Kras loaded with GDP, His-tagged human SOS1; read-out: KRAS G12D-SOS PPI IC50;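 further: kras produced in E. coli, Ni-coupled donor beads and streptavidin acceptor beads, excitation 680 nm with emission detected at 520–620 nm via singlet oxygen transfer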
[2] = system: Human pancreatic cancer cell line AsPC-1 (G12D mutation Kras); assay: AsPC-1 cell growth inhibition (AsPC-1 CGI); assay type: cell-based; conditions: read-out: AsPC-1 cell growth inhibition, 50% growth inhibitory concentration (IC50 value); 96 hours, CellTiter-Glo, values classified in ranges
Description: Test compounds were serially dilated with dimethyl sulfoxide, and 200 nL was then dispensed to a U-bottom 96-well plate using Labcyte Echo. […] The cell suspension was dispensed to a. plate containing a test compound at 100 μL per well and incubated at 37° C. in a 5% carbon dioxide gas incubator. 96 hours later, 80 μL of CellTiter-Glo (Promega) was added to each well and fluorescence was measured.

Row | SMILES | IC50 [1] [nM] | IC50 [2] [nM]
1 | CC[C@H](C)[C@@H]1NC(=O)[C@H](CC(C)C)N(C)C(=O)C[C@@H](C(=O)N2C3CCC2COC3)N(C)C(=O)[C@H](C2CCCC2)N(C)C(=O)C2(CCCC2)NC(=O)[C@@H]2CCCN2C(=O)[C@H](CCc2ccc(C(F)(F)F)c(Cl)c2)NC(=O)CN(C)C(=O)[C@H](C2CCCC2)N(C)C(=O)[C@@H]2CCN2C(=O)[C@H](C)N(C)C1=O [Compound 721] ([NMeL]I[NMeA][Aze][NMeGly(cPent)][Sar][hPhe(3-Cl-4-CF3)]P[Ac5c][NMeGly(cPent)][NMeD]-{3Oxa8azabicyclo(3.2.1)octane}; lactam N-11) | 1.5 | ≤ 20
2 | CC[C@H](C)[C@@H]1NC(=O)[C@H](CC(C)C)N(C)C(=O)C[C@@H](C(=O)N2CCCCC2)N(C)C(=O)[C@H](C2CCCCC2)N(C)C(=O)C2(CCCC2)NC(=O)[C@H](COCC(=O)NC(C)(C)C)N(C)C(=O)[C@H](CCc2ccc(C(F)(F)F)c(Cl)c2)NC(=O)CN(C)C(=O)[C@H](CC2CCCCC2)N(C)C(=O)CN(C)C(=O)CN(C)C1=O [Compound 727] ([NMeL]I[Sar][Sar][NMeCha][Sar][hPhe(3-Cl-4-CF3)][NMeS](CH2CONHtBu)[Ac5c][NMeChg][NMeD]-Piperidide; lactam N-11) | 6.9 | > 500
3 | CC(C)=CC[C@@H]1NC(=O)[C@H](CC(C)C)N(C)C(=O)C[C@@H](C(=O)N2CCCCC2)N(C)C(=O)[C@H](C(C)C)N(C)C(=O)C2(CCCC2)NC(=O)[C@@H]2CCCN2C(=O)[C@H](CCc2ccc(C(F)(F)F)c(Cl)c2)NC(=O)CN(C)C(=O)[C@H](CC2CCCCC2)N(C)C(=O)[C@@H]2CCN2C(=O)[C@H](C)N(C)C1=O [Compound 729] ([NMeL][X26][NMeA][Aze][NMeCha][Sar][hPhe(3-Cl-4-CF3)]P[Ac5c][NMeV][NMeD]-Piperidide; lactam N-11) | 43 | > 500
4 | CCCC[C@H]1C(=O)NC2(CCCC2)C(=O)N(C)[C@@H](C2CCCCC2)C(=O)N(C)[C@H](C(=O)N2CCCCC2)CC(=O)N(C)[C@@H](CC(C)C)C(=O)N[C@@H]([C@@H](C)CC)C(=O)N(C)CC(=O)N(C)CC(=O)N(C)[C@@H](CC2CCCCC2)C(=O)N(C)CC(=O)N[C@@H](CCc2ccc(C(F)(F)F)c(Cl)c2)C(=O)N1C [Compound 730] ([NMeL]I[Sar][Sar][NMeCha][Sar][hPhe(3-Cl-4-CF3)][NMeNle][Ac5c][NMeChg][NMeD]-Piperidide; lactam N-11) | 12 | > 500
5 | CCO[C@@H]1C[C@H]2C(=O)NC3(CCC3)C(=O)N(C)[C@@H]([C@@H](C)CC)C(=O)N(C)[C@H](C)CC(=O)N(C)[C@@H](CC(C)C)C(=O)N[C@@H]([C@@H](C)CC)C(=O)N(C)[C@@H](C)C(=O)N3CC[C@H]3C(=O)N(CC)[C@@H](Cc3ccc(C(F)(F)F)cc3)C(=O)N(C)CC(=O)N[C@@H](CCc3cc(F)c(C(F)(F)F)c(F)c3)C(=O)N2C1 [Compound 731] (cyclo([Ac4c][NMeI][NMedβ3hAla][NMeL]I[NMeA][Aze][NEtPhe(4-CF3)][Sar][hPhe(3,5-F2-4-CF3)][Hyp](Et))) | 3.5 | ≤ 20
6 | CC[C@H](C)[C@@H]1NC(=O)[C@H](CC(C)C)N(C)C(=O)C[C@@H](C(=O)N2CCCCC2)N(C)C(=O)[C@H](C(C)C)N(C)C(=O)[C@H](C(C)C)NC(=O)[C@@H]2CCCN2C(=O)[C@H](CCc2ccc(C(F)(F)F)c(Cl)c2)NC(=O)CN(C)C(=O)[C@H](CC2CCCCC2)N(C)C(=O)[C@@H]2CCN2C(=O)[C@H](C)N(C)C1=O [Compound 741] ([NMeL]I[NMeA][Aze][NMeCha][Sar][hPhe(3-Cl-4-CF3)]PV[NMeV][NMeD]-Piperidide; lactam N-11) | 86 | > 500
7 | C=CC[C@@H]1NC(=O)[C@H](CC(C)C)N(C)C(=O)C[C@@H](C(=O)N2CCCCC2)N(C)C(=O)[C@H](C(C)C)N(C)C(=O)C2(CCCC2)NC(=O)[C@@H]2CCCN2C(=O)[C@H](CCc2ccc(C(F)(F)F)c(Cl)c2)NC(=O)CN(C)C(=O)[C@H](CC2CCCCC2)N(C)C(=O)[C@@H]2CCN2C(=O)[C@H](C)N(C)C1=O [Compound 745] ([NMeL][AllylGly][NMeA][Aze][NMeCha][Sar][hPhe(3-Cl-4-CF3)]P[Ac5c][NMeV][NMeD]-Piperidide; lactam N-11) | 29 | > 500
8 | CCCC[C@@H]1NC(=O)[C@H](CCc2ccc(C(F)(F)F)c(Cl)c2)NC(=O)CN(C)C(=O)[C@H](CC2CCCCC2)N(C)C(=O)[C@@H]2CCN2C(=O)CN(C)C(=O)[C@H]([C@@H](C)CC)NC(=O)[C@@H]2CCCCN2C(=O)C[C@@H](C(=O)N2CCCCC2)N(C)C(=O)[C@H](CC(C)C)NC(=O)C(C)(C)N(C)C1=O [Compound 760] ([Pip]I[Sar][Aze][NMeCha][Sar][hPhe(3-Cl-4-CF3)][Nle][NMeAib]L[NMeD]-Piperidide; lactam N-11) | 5.2 | > 500
